# Test results reported in the supplement of paper PMC10307832.
# Tests used:
# Experiment in all cases: relative viability (nuclei count vs DMSO), 5 days (fraction); higher = more cells survive
# VE-821 + Foretinib = compound: CS(=O)(=O)c1ccc(-c2cnc(N)c(C(=O)Nc3ccccc3)n2)cc1 [VE-821] + COc1cc2c(Oc3ccc(NC(=O)C4(C(=O)Nc5ccc(F)cc5)CC4)cc3F)ccnc2cc1OCCCN1CCOCC1 [Foretinib] (partner 0.25 µM)
# Method in brief: (§1)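 Lung cancer cell lines, seeded in 1536-well plates, were treated the following day by pin tool with a single drug or with five library-drug doses (not always all listed) in √10 steps on top of a fixed anchor-drug dose. Cells were fixed and nuclei stained in one step after 5 days, and nuclei were counted. Relative viability is the nuclei count for treated wells divided by that for vehicle wells, reported as medians of duplicate plates.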
# VE-821 + Linsitinib = compound: CS(=O)(=O)c1ccc(-c2cnc(N)c(C(=O)Nc3ccccc3)n2)cc1 [VE-821] + C[C@]1(O)C[C@@H](c2nc(-c3ccc4ccc(-c5ccccc5)nc4c3)c3c(N)nccn32)C1 [Linsitinib] (partner 1 µM)
# Method in brief: as §1
# Ruxolitinib + Linsitinib = compound: N#CC[C@H](C1CCCC1)n1cc(-c2ncnc3[nH]ccc23)cn1 [Ruxolitinib] + C[C@]1(O)C[C@@H](c2nc(-c3ccc4ccc(-c5ccccc5)nc4c3)c3c(N)nccn32)C1 [Linsitinib] (partner 1 µM)
# Method in brief: as §1
# Ruxolitinib + Tozasertib = compound: N#CC[C@H](C1CCCC1)n1cc(-c2ncnc3[nH]ccc23)cn1 [Ruxolitinib] + Cc1cc(Nc2cc(N3CCN(C)CC3)nc(Sc3ccc(NC(=O)C4CC4)cc3)n2)n[nH]1 [Tozasertib] (partner 0.1 µM)
# Method in brief: as §1
Cell Line,relative viability (VE-821 + Foretinib; first compound 0.08 µM),relative viability (VE-821 + Foretinib; first compound 0.253 µM),relative viability (VE-821 + Foretinib; first compound 0.8 µM),relative viability (VE-821 + Foretinib; first compound 2.53 µM),relative viability (VE-821 + Foretinib; first compound 8 µM),relative viability (VE-821 + Linsitinib; first compound 0.08 µM),relative viability (VE-821 + Linsitinib; first compound 0.253 µM),relative viability (VE-821 + Linsitinib; first compound 0.8 µM),relative viability (VE-821 + Linsitinib; first compound 2.53 µM),relative viability (VE-821 + Linsitinib; first compound 8 µM),relative viability (Ruxolitinib + Linsitinib; first compound 0.08 µM),relative viability (Ruxolitinib + Linsitinib; first compound 0.253 µM),relative viability (Ruxolitinib + Linsitinib; first compound 0.8 µM),relative viability (Ruxolitinib + Linsitinib; first compound 2.53 µM),relative viability (Ruxolitinib + Linsitinib; first compound 8 µM),relative viability (Ruxolitinib + Tozasertib; first compound 0.08 µM),relative viability (Ruxolitinib + Tozasertib; first compound 0.253 µM),relative viability (Ruxolitinib + Tozasertib; first compound 0.8 µM),relative viability (Ruxolitinib + Tozasertib; first compound 2.53 µM),relative viability (Ruxolitinib + Tozasertib; first compound 8 µM)
LU99A,0.903,0.763,0.802,0.851,0.462,0.496,0.535,0.545,0.53,0.278,0.549,0.499,0.541,0.554,0.499,0.296,0.26,0.298,0.303,0.316
LXF-289,1.02,0.991,0.98,1.04,1.07,0.992,0.945,1.06,1.1,1.07,0.919,0.972,0.858,0.892,0.813,0.215,0.165,0.233,0.134,0.187
NCI-H23,1.19,1.13,0.889,0.688,0.39,0.56,0.639,0.485,0.706,0.37,0.579,0.694,0.799,0.485,0.612,0.434,0.418,0.437,0.401,0.301
NCI-H322M,1.07,0.879,0.89,0.858,0.393,0.933,,1,0.93,0.771,1.05,0.9,0.997,0.91,1.17,0.451,0.503,0.457,0.458,0.482
NCI-H358,0.687,0.598,0.591,0.896,0.624,0.812,0.777,0.723,1.09,0.469,0.716,0.629,0.803,0.514,0.544,0.102,0.0986,0.102,0.102,0.0752
NCI-H441,1.36,1.04,1.19,1.04,0.928,0.762,0.666,0.651,0.821,0.42,0.508,0.573,0.512,0.637,0.286,0.63,0.629,0.716,0.625,0.587
NCI-H460,1.02,0.979,0.841,0.919,0.17,1.06,0.657,0.693,0.239,0.0295,0.801,0.858,0.929,0.702,0.462,,0.601,0.606,0.578,0.744
NCI-H520,0.853,0.727,0.454,1.45,0.762,1.09,0.931,,1.03,0.755,,1.08,1.16,0.847,0.679,0.553,0.467,0.537,0.439,0.477
NCI-H596,0.867,0.617,0.928,0.905,0.607,1.1,1.18,1.03,1.15,0.94,1.24,1.18,1.09,1.11,1.11,0.827,0.897,0.962,0.955,0.799
NCI-H647,1.51,1.29,1.01,1.14,0.801,1.44,1.28,0.829,0.751,0.493,1.29,1.15,1.22,1.16,1.03,0.297,0.237,0.224,0.378,0.297
NCI-H650,1.04,1.05,1.08,1.04,1.07,0.959,0.843,0.863,0.949,0.714,,0.795,1.11,0.677,0.55,,0.834,0.788,0.554,0.603
NCI-H661,0.991,1.04,0.95,1.08,0.935,0.539,0.568,0.481,0.493,0.4,0.598,0.639,0.708,0.498,0.591,0.358,0.354,0.365,0.363,0.352
NCI-H727,1.27,0.982,0.823,0.789,0.405,0.31,0.337,0.251,0.335,0.22,0.283,0.272,0.237,0.228,0.427,0.663,0.818,0.674,0.567,0.589
NCI-H838,1.21,0.946,0.892,1.13,0.877,1.13,0.992,0.913,1.11,0.913,1.03,0.903,0.87,0.534,0.36,0.299,0.23,0.256,0.223,0.225
NCI-H1355,1.04,0.942,0.768,1.01,0.729,0.803,0.789,0.654,0.767,0.56,0.794,0.841,0.843,0.753,0.716,0.575,0.564,0.571,0.594,0.574
NCI-H1395,1.05,1.01,0.826,0.98,0.828,1.07,1.01,0.893,1.05,0.683,,0.998,1.08,0.945,1.01,0.768,0.718,0.86,0.753,0.78
